# Measured values reported in patent publication EP1379634B1 (THE UNIVERSITY OF GEORGIA RESEARCH FOUNDATION, INC., priority 2001, dated 2002).
# Residues, ends and D or L forms follow the SMILES beside them. *: point of attachment. AFC = O=c1cc(C(F)(F)F)c2ccc(N*)cc2o1; MeOSuc = COC(=O)CCC(=O)*; Cbz = O=C(OCc1ccccc1)*; Boc = CC(C)(C)OC(=O)*
# Columns and labels:
# BALB/c mice = test: Observation of side effects in treated mice; format: in vivo; details: long-term studies
# [1] = test system: purified Taenia solium cysteine protease; test: Competitor assay of low Vmax substrates (vehicles) against high Vmax substrate cocktails (Step III), purified protease; format: biochemical; details: vehicle 8X10^-6 M; for inhibition with the final cocktail (7.4%): 7.4% cocktail (five high Vmax substrates, 1X10^-6 M each); for V Value: V = P * M, P inhibition with first (1.4%) cocktail, M with last (7.4%) cocktail, each cocktail substrate 1X10^-6 M; for inhibition with the 1.4% cocktail: 1.4% cocktail (Z-FR-AFC 1X10^-6 M)
# Description: The top 1.4% of substrates (out of 67) in the full panel of substrates with the highest Vmax values were chosen to compose a "TOP 1.4% cocktail". (We employed "Vmax" here although Kcat could also be used). Due to the lower number of substrates, a percentage was not chosen for the "BOTTOM %" substrates. Alternately, all substrates which were not cleaved as determined by a value of 10 uM/hr or less, were chosen to be tested in this step for competitive ability. Hereinafter the term "vehicle" will represent low Vmax substrates that were capable of inhibiting cleavage of the percent cocktails. In this instance, we tested for "vehicles" which inhibited cleavage of the TOP 1.4% cocktail (they were delivered into the active site). Based upon our results from Step II, the top 1.4% cocktail was composed of Z-Phe-Arg-AFC, the highest cleaved substrate.
# The experiment began with a competitor test between the noncleaved low Vmax substrates and the highest Vmax substrate, Z-Phe-Arg-AFC. Concentrations were varied between the low Vmax substrate and Z-Phe-Arg-AFC, as described above under "refinement of assay" until a relative inhibition profile was obtained.
# The mixture was allowed to equilibrate for a period of 30 minutes. Finally, active purified enzyme was added to the tubes at a concentration that was always 50 times less than the concentration of the high and low Vmax substrates, respectively, in order to insure saturation conditions. This concentration varied from purification to purification and the amount added depended upon the yield and specific activity of the purified protease.
# Positive controls were set up in a manner similar to that described for test controls, except that solvent was added in substitution for the low Vmax substrate (in a volume equal to the low Vmax volume addition). All of the substrates could be dissolved in dimethylsulfoxide (DMSO), and therefore, this was the solvent of choice. Negative controls were set up by adding the low Vmax and the high Vmax substrate in a tube without the protease. All potential non-proteolytic induced liberation of AFC was therefore controlled for in this tube (a feature which also monitored stability of the AFC substrates, since these substrates will freely liberate AFC when unstable). A tube set was established for this negative control.
# All controls were set up in triplicate, and experiments were repeated a minimum of five times. The assays were incubated at 37°C, for 18 hours overnight.
# Percent inhibition was calculated as: %Inhibition = ((AFC positive for "Y"−AFC negative for "Y")−(AFC test−AFC negative for "Y"))/(AFC positive for "Y"−AFC negative for "Y") × 100 [formula]
# A 2.9% cocktail of the high Vmax substrates was made. This was composed of Z-FR-AFC and the second most cleaved substrate, Z-FAR-AFC. The vehicles promoted from the initial screenings above were again tested for competitive inhibition ability with the new cocktails. Their concentrations were set identically to those which were "fixed" in the previous protocols. In other words, 8X10^-6 M of the vehicle was added to the culture tube with 1X10^-6 M of Z-FR-AFC and 1X10^-6 M of Z-FAR-AFC. Active protease was added last at a concentration that was 50 times less than the concentration of the high Vmax substrate (to ensure saturating conditions).
# In similar experimental fashion, a 4.4%, 5.9%, and 7.4% cocktail were tested with each of the promising vehicles. Each increase in the percentage represented an increase by an additional high Vmax substrate. Each of the individual components in the cocktail were added at 1X10^-6 M each, to 8X10^-6 M of the vehicle. The composition of the cocktails was as follows: 4.4% cocktail: Z-FR-AFC, Z-FAR-AFC, and Z-AAK-AFC (third highest cleaved substrate); 5.9% cocktail: Z-FR-AFC, Z-FAR-AFC, Z-AAK-AFC, and AP-AFC (fourth highest cleaved substrate); 7.4% cocktail: […], Z-FAR-AFC, Z-AAK-AFC, AP-AFC, and Z-VLR-AFC. […]
# Taenia solium crude mix = test: Competitor assay of vehicles against high Vmax substrate cocktails (Step III), crude mix; format: biochemical
# Excerpt: Step III for a crude mix proceeds as it would for a purified protease, except that Vm is used instead of kcat.
# One of the most intriguing findings in this experiment was that a highly similar inhibition pattern for the competitor assay resulted when the crude mix was employed as the source of the target protease. Although there were some variations in the effects of inhibitor dilution, the most highly ranked vehicles remained inhibitory consistently in comparison to the profile with the target protease. The relative profile and composition of the top tier of vehicles was identical. Z-LLL-AFC, Z-LLY-AFC, Mu-LY-AFC, Boc-VPR-AFC, Z-SY-AFC, Z-RR-AFC, Z-FLF-AFC, and Z-LGR-AFC consistently emerged as the top eight vehicles (Fig. 5b), respectively, based upon their V values (Table 2). […] It was notable that the three vehicles had very similar V values. […] As was mentioned, this vehicle along with Z-LLL-AFC and Z-LLY-AFC, were consistently the most inhibitory vehicles. The V values of the most inhibitory vehicle series are shown below in Table 2. Again, a clear break between the first and second tier vehicles is discernible for the V value. Table 2. Vehicles and V value rankings.
# [2] = test system: purified Taenia solium cysteine protease; test: Substrate cleavage screen of AFC-linked peptides (Step II), purified protease; format: biochemical; details: 0.4 M Citrate, pH 4.9, 0.01 M cysteine, 18 h, 37 °C
# Description: In this step, the most efficacious substrate for detection of the cysteine protease (high Kcat substrate) was determined in vitro along with those substrates which were not well cleaved (low kcat substrates). From this point forward, the following conditions refer to all assays: "assay buffer" refers to 0.4 M Citrate, pH 4.9 (the pH optima of the protease). Incubation time was 18 hours at 37°C. These conditions were determined by our preliminary data to be best for kinetic evaluation of the protease. […] The experiments were conducted in 6X50 […] Borosilicate mini-culture tubes (Fisher Scientific), and a fluorometer (Turner) was employed for detection of AFC cleavage.
# Since the full 8,420 amino acid possibilities for cleavage were not available, representative substrates were employed. […] In order to choose this subset, representative amino acids (i.e., selected from the categories of acidic, basic, nonpolar, uncharged) were chosen so as to create as many categories of motifs as feasible for the P3-P1 positions with a set of 67 small peptides (see lists at Fig. 4a and Fig. 4b). The target cysteine protease from Taenia solium was isolated using the purification methods described previously in the patent WO 00/63350.
# Approximately 1 ug (or a proteolytically detectable amount) of the purified target cysteine protease was incubated individually, with 1 ug of each of the available substrates in 500 uL of assay buffer. During this setup, the substrate was pre-incubated in the assay buffer for a short period of time (20 minutes) in order to reach an equilibrated status before the addition of the protease. Cleavage assessments were based upon the property of the protease to cleave synthetic peptide substrates linked at the C-terminus to 7-Amino-4-Trifluoromethyl Coumarin (AFC) as previously described. AFC linked tripeptides, dipeptides, and monopeptides, (with a variety of permutations at P3-P1) were available from Enzyme Systems Products (Livermore, CA), and were used as the source of the subset. Following incubation of enzyme preparations overnight (18 h, 37 °C) with peptide in assay buffer (Citrate, pH 4.9, supplemented with 0.01 M cysteine), free AFC concentrations were measured fluorometrically (excitation 405 nm, emission 505 nm). The proteolytic cleavage released the AFC group, which was measurable as a free molecule by a standard fluorometer and converted into molar quantities, based upon a previously established standard curve. The simplicity of AFC detection by the fluorometer was a key factor which expedited and simplified the procedures.
# In the assay, 1 ug of the purified Taenia cysteine protease was added to a saturating amount of Z-Phe-Arg-AFC (4X10^-5 M) in assay buffer. The experiment was conducted in triplicate and repeated at least 5 times until we were certain that variability in AFC cleavage was not statistically significant.
# Vmax for the cleavage of substrates by the purified target protease and Vmax for substrates cleaved by the crude mix protease were each calculated using conventional kinetic modeling calculations already described in the art.
Compound,inhibition with the final cocktail (7.4%) [1],Tier (Taenia solium crude mix),cleavage of AFC substrate (Vmax) [2],further results
CC(C)CC(NC(=O)OCc1ccccc1)C(=O)NC(C=CS(=O)(=O)c1ccccc1)Cc1ccccc1 (stereo not drawn),–,–,–,side effects in treated mice (BALB/c mice): goiter and neurological problems
"CC(C)[C@H](NC(=O)OC(C)(C)C)C(=O)N1CCC[C@H]1C(=O)N[C@@H](CCCNC(=N)N)C(=O)Nc1ccc2c(C(F)(F)F)cc(=O)oc2c1 [B-VPR-AFC, Boc-Val-Pro-Arg-AFC] (Boc-Val-Pro-Arg-{AFC})",less than 20%,2 (The second tier was composed of those vehicles that produced inhibition between 20-50% inhibition when in the presence of the 1.4% cocktail),noncleavable,V Value ([1]; listed as B-VPR-AC): 0.120
N[C@@H](CCC(=O)O)C(=O)N[C@@H](Cc1ccc(O)cc1)C(=O)Nc1ccc2c(C(F)(F)F)cc(=O)oc2c1 [EY-AFC] (H-Glu-Tyr-{AFC}),–,–,not cleaved,–
COC(=O)CCC(=O)N[C@@H](Cc1ccccc1)C(=O)N[C@@H](CC(C)C)C(=O)N[C@@H](Cc1ccccc1)C(=O)Nc1ccc2c(C(F)(F)F)cc(=O)oc2c1 [MeoSuc-FLF-AFC] (MeOSuc-Phe-Leu-Phe-{AFC}),–,–,not cleaved,–
CC(C)C[C@H](NC(=O)OCc1ccccc1)C(=O)N[C@@H](CCCNC(=N)N)C(=O)N[C@@H](CCCNC(=N)N)C(=O)Nc1ccc2c(C(F)(F)F)cc(=O)oc2c1 [Z-LRR-AFC] (Cbz-Leu-Arg-Arg-{AFC}),–,–,–,inhibition with the 1.4% cocktail [1]: greater than 20%
N=C(N)NCCC[C@H](NC(=O)OCc1ccccc1)C(=O)N[C@@H](CCCNC(=N)N)C(=O)Nc1ccc2c(C(F)(F)F)cc(=O)oc2c1 [Z-RR-AFC] (Cbz-Arg-Arg-{AFC}),less than 20%,2 (The second tier was composed of those vehicles that produced inhibition between 20-50% inhibition when in the presence of the 1.4% cocktail),–,V Value [1]: 0.09
O=C(N[C@@H](CO)C(=O)N[C@@H](Cc1ccc(O)cc1)C(=O)Nc1ccc2c(C(F)(F)F)cc(=O)oc2c1)OCc1ccccc1 [Z-SY-AFC] (Cbz-Ser-Tyr-{AFC}),less than 20%,2 (The second tier was composed of those vehicles that produced inhibition between 20-50% inhibition when in the presence of the 1.4% cocktail),–,V Value [1]: 0.09; V Value (Taenia solium crude mix; V = P * M): 0.09
Cbz-Leu-Gly-Arg-{AFC} [Z-LGR-AFC],less than 20%,–,noncleavable,inhibition with the 1.4% cocktail [1]: greater than 20%
